Data set [1] deals with DLD1 cells. In words: Cell cycle and BrdU/PI labeling analysis. Particulars: for cell cycle progression (PI staining): 100 nM 5-FdU; for cell cycle profile (BrdU and PI co-staining): 100 nM 5-FdU 24 h. In kind it is cell-based, human. As for the experimental part:
For cell cycle analysis, DLD1 cells were synchronize by serum starvation for 48 h and released in fresh media for 16 h. The cells were then treated with 100 nM 5-FdU for 4, 8, 12, 20, 24, 28, 32, 36, 48, 72, and 96 h. At each time point, cells were harvested and fixed with methanol. Fixed cells were incubated with DNase-free RNaseA (Roche) and stained with 50 μg/mL PI solution (Sigma-Aldrich). For BrdU/PI labeling analysis, cells were treated with 100 nM 5-FdU for 24 h and pulsed with 10 μM BrdU (BD Biosciences Pharmingen, BrdU Flow Kit) for 45 minutes before collecting cells. According to manufacturer's instructions from BD Biosciences Pharmingen, cells were fixed, treated with DNAse for 1 h at 37° C., stained with FITC anti-BrdU for 20 minutes, and incubated with PI staining solution (50 μg/mL PI, 10 mM Tris-HCl pH 7.5, 5 mM MgCl2, 10 μg/mL DNase-free RNaseA) for 30 minutes at 37° C. For both assays, cells were analyzed on a BD LSRII instrument.

In another data set the test system is H1299. In words: Clonogenic survival assay. Type of data set: cell-based. Particulars: Homo sapiens, NCI-H1299; H1299 (p53 null), 24 h treatment, colonies after at least 10 days.
The next data set deals with HCT116 p53 KO cells. The data set can be described thus: Flow cytometric assay of apoptosis (Annexin V/PI). In kind it is cell-based, human. Particulars: 25 nM 5-FdU 24 h. The procedure: (§1) Cells were seeded in 6-well tissue culture plates (1.5×10^5 cells/well) and allowed to attach overnight. Cells were then treated with 25 nM 5-FdU for 24 h, washed twice with PBS, replenished with drug-free medium at 48, 72, and 96 h. After recovery, the cells floating in the medium were collected. The adherent cells were trypsinized, pelleted, washed in ice-cold PBS, and resuspended in 1× Binding Buffer according to the manufacturer's instructions (FITC Annexin V Apoptosis Detection Kit, BD Pharmingen). Cells were then stained with FITC Annexin V and PI for 15 minutes at room temperature in the dark. Annexin V-FITC detects translocation of […] from the inner to the out cell membrane during early apoptosis, and PI can enter the cells in late apoptosis or necrosis. Untreated cells were used as control for the double staining. The cells were analyzed immediately after staining using a Attune NXT instrument and FlowJo software. For each measurement, at least 20,000 cells were counted.

For a further data set, the system named is HCT116 p53 WT cells. The data set can be described thus: Flow cytometric assay of apoptosis (Annexin V/PI). Type of data set: cell-based, human. The conditions noted are these: 25 nM 5-FdU 24 h, at 48 h, both UDG expressing and UDG depleted cells. The procedure: as §1
In general terms: In flow cytometry, cells or beads pass a laser one at a time.

Data set [2] has as its system DLD1 cells. The data set can be described thus: AP site detection assay (genomic uracil and 5-FU). Type of data set: cell-based, human. Particulars: for levels of AP sites: 0-200 nM 5-FdU 48 h. As for the experimental part: The amount of cellular AP sites was assessed as we previously described by using a NIR cyanine-based AP site probe. […] After the reaction, AP site probe with a final concentration of 25 μM was added and incubated at 37° C. for 1 h. Following incubation, extracted DNA was precipitated, and the supernatant was discarded. DNA pellets were resuspended in H2O, and DNA concentrations were measured and adjusted. The fluorescence intensities of each sample were analyzed with 760 nm excitation and emission scan of 790-847 nm.

Description for DLD1 colon cancer cells: UDG knockdown was performed via shRNA transduction with validated clone from Sigma-Aldrich. […] A non-targeted scramble control shRNA clone (Sigma-Aldrich) was also used. Transfection of shRNA clones was performed according to manufacturer's specifications from Lipofectamine 2000 (Invitrogen). Lentiviral particles were produced via HEK293 cells, and targeted cells were infected and selected with puromycin. The stable UDG knockdown levels were verified for q-PCR and western blot analysis.
Colonies were stained with methylene blue, and only colonies containing ≥50 cells were counted. The percentage of survival was determined relative to untreated control averaged over 3 independent experiments.
Description for H1299: Cancer cells (200-300 cells/well) were seeded in 6-well culture dishes and allowed to adhere overnight. For 5-FdU, cells were treated for 24 h, then gently washed with PBS, and incubated with fresh media for at least 10 days to allow individual colonies to form. […] After 10-18 days, the plates were stained with methylene blue. Colonies containing ≥50 cells were counted. The percentage of survival was determined relative to untreated control averaged over 3 independent experiments.

The term IC50 denotes the concentration that inhibits the measured activity by half. Take `O=c1[nH]c(=O)n([C@H]2C[C@H](O)[C@@H](CO)O2)cc1F` [5-FdU, 5-fluorodeoxyuridine]: the “cell cycle progression (PI staining)” value is reported as “strong cell cycle arrest” in the data set on DLD1 cells [1] (synchronized DLD1 UDG depleted, late G1 and early S phase, lasted 48 h); “slowed the progression” in the data set on DLD1 cells [1] (synchronized DLD1 shSCR, through S phase by 36 h). The “cell cycle profile (BrdU and PI co-staining)” value in the data set on DLD1 cells [1] (unsynchronized DLD1 shSCR) is “S phase arrest especially at middle and late S phase”; in the data set on DLD1 cells [1] (unsynchronized DLD1 shUDG), “arrested at late G1 and early S phase”. Further, the “cell survival in shSCR-transfected cells” value in the data set on DLD1 colon cancer cells (DLD1 shSCR, high concentrations) is “moderate loss of cell viability”. Also, in the data set with DLD1 colon cancer cells (DLD1 shUDG vs shSCR), the “effect of UDG depletion on drug sensitivity” value is “highly sensitized”. The compound further showed an IC50 in the data set with H1299 of 269.6 ± 0.73 nM. In addition, the “cell death (Annexin V and PI positive)” value in the data set on HCT116 p53 KO cells (UDG depleted cells, 48 to 96 h) is recorded as “significantly elevated”; in the data set on HCT116 p53 KO cells (UDG expressing cells), “significantly lower”; in the data set with HCT116 p53 WT cells, “significant cell death”. Moreover, the “level of uracil and 5-FU in UDG depleted cells relative to shSCR-transfected cells” value with DLD1 cells [2] (100 nM 5-FdU 24 h) was “about three times higher”. In addition, the “levels of AP sites” value with DLD1 cells [2] (shSCR-transfected cells) is listed as “remained low”; with DLD1 cells [2] (shUDG-transfected cells, dose dependent) it was “dramatic increase”.

The values above are taken from patent US10722530B2, “Methods of diagnosing and treating cancer” (CASE WESTERN RESERVE UNIVERSITY, priority 2016, dated 2020).
